Assay results published in patent US9867814B2, “Use of non-peptidic NK1 receptor antagonists for the production of apoptosis in tumour cells” (NK-1 IP LIMITED, priority 2004, dated 2018).

Columns and labels:
Assay type in all cases: cell-based, human
COLO-677 = test: MTS cell proliferation assay, small cell lung cancer line COLO-677; details: COLO-677 cells
Description: Cellular lines related with small cell lung cancer COLO-677 (DSMZ) was used. This cellular line was maintained in a culture of RPMI 1640 supplemented with 10% fetal bovine serum according to the established cellular culture conditions of the ATCC.
(§1) The cellular line was cultivated in flasks of 75 ml (Falcon, Germany). Half were renewed every two days and the cells were treated with Trypsin (0.05% and 0.02% EDTA without Ca2+ and Mg2+) every six days. The cells were incubated at a temperature of 37 C in a humidification of (95% air/5% CO2). […]
(§2) The cell proliferation was evaluated using the MTS method [3-(4,5-dimethylthiazol-2-il)-5-(3-carboxymethoxyphenyl) 2-(4-sulfophenyl)-2H-tetrazolium], following the instructions of use by the manufacturer (CellTiter 96 Aqueous One Solution Cell Proliferation Assay, Promega, USA).
(§3) During the experiment, the cultivated cells were broken apart every 4-5 days by way of trypsinization and to test the cell viability the blue trypan method was used. The cells were quantified and cultured in plates of 96 wells each. […]
In T0, 20 μl of MTS was immediately added to the wells and they were read 90 minutes later. […]
To study the proliferation of the cells 20 μL of MTS reactor was added to each well (T1, T2) 90 min., before reading the samples with the plate reader (TECAN Spectra Classic) at 492 nm. […]

CA-46 = test: MTS cell proliferation assay, Burkitt's lymphoma line CA-46; details: CA-46 cells
Description: Cellular lines related with Burkitt's human lymphoma The cellular line of Burkitt's human lymphoma was used with CA-46 (DSMZ).
This cellular line was maintained in a culture of RPMI 1640 supplemented with 10% fetal bovine serum according to the established cellular culture conditions of the ATCC.
The cellular lines were cultivated in flasks of 75 ml (Falcon, Germany). Half was renewed every two days and the cells were treated with Trypsin (0.05% and 0.02% EDTA […]) every six days. The cells were incubated at 37 C in a humidification of (95% air/5% CO2). […]
as §2
The cells were quantified and cultured in plates of 96 wells each. […]
In T0, 20 μL of MTS was immediately added to the wells and they were read 90 minutes later. […]
To study the proliferation of the cells 20 µl of reactive MTS was added to each well (T1, T2) 90 min before reading the samples with the plate reader (TECAN Spectra Classic) at 492 nm. The quantity of reactive MTS was measured by optical density, being directly proportional in number of live cells. […]

A-204 = test: MTS cell proliferation assay, rhabdomyosarcoma line A-204; details: A-204 cells
Description: Cellular Lines Related to Human Rhabdomyosarcoma A-204 (DSMZ) were Used.
This cellular line was maintained in a culture of Mc-Co-supplemented with 10% fetal bovine serum according to the established cellular culture conditions of the ATCC.
as §1
The cell proliferation was evaluated using the MTS method [3-(4,5-dimethylthiazol-2il)-5-(3-carboxymethoxyphenyl) 2-(4-sulfophenyl)-2H-tetrazolium], following the instructions of use by the manufacturer (CellTiter 96 Aqueous One Solution Cell Proliferation Assay, Promega, USA).
as §3
In T0, 20 μl of MTS was immediately added to the wells and were read 90 minutes later. […]
To study the proliferation of the cells 20 μl of MTS reactor was added to each well (T1, T2) 90 min., before reading the samples with the plate reader (TECAN Spectra Classic) at 492 nm. […]

FC(F)(F)c1cc(CO[C@H]2CCCN[C@H]2c2ccccc2)cc(C(F)(F)F)c1 [L-733,060, (2S,3S) 3-([3,5-Bis(trifluoromethyl)phenyl]metoxi)-2-phenylpiperidine]
cellular growth (COLO-677; at the highest concentrations (5 μM to 20 μM tested), 40 hrs. and 96 hrs. incubation): Cellular growth is inhibited | apoptosis (COLO-677; at the maximum dose (5 μM to 20 μM tested)): apoptosis | cellular growth (CA-46; at the highest concentrations (2.5 μM to 25 μM tested), 35 hrs. and 72 hrs. incubation): inhibition in cellular growth was produced | apoptosis (CA-46; at the maximum dose (2.5 μM to 25 μM tested)): apoptosis | cellular growth (A-204; at the highest concentrations (2.5 μM to 20 μM tested), 36 hrs. and 72 hrs. incubation): Cellular growth is inhibited | apoptosis (A-204; at the maximum dose (2.5 μM to 20 μM tested)): apoptosis
